The values below come from US20240391875A1, “ISOQUINOLINONES AND QUINOLINONES AS MODULATORS OF POLRMT” (Pretzel Therapeutics, Inc., priority 2021, published 2024).

This assay has as its target POLRMT (Homo sapiens, UniProt O00411). The assay is described as follows: homogeneous TR-FRET assay of mitochondrial transcription (inhibition of POLRMT). It counts as biochemical. On the procedure:
The inhibitory activity of the compounds of the present invention against POLRMT were determined by assays based on Bergbrede, T., et al., “An adaptable high-throughput technology enabling the identification of specific transcription modulators,” SLAC Discov., 22, 378-386 (2017).
The ability of some compounds of the present invention to inhibit POLRMT were determined in a homogeneous TR-FRET Assay using high-throughput screening in a 384-well plate format. This method is used to monitor the activity of mitochondrial transcription through measurement of its product, a 407 bp long RNA transcript. Detection of the product is facilitated by hybridization of two DNA-oligonucleotide probes to specific and adjacent sequences within the RNA product sequence. Upon annealing of the probes, two fluorophores are coupled directly to an acceptor nucleotide probe (ATTO647, 5′), or introduced via a coupled streptavidin with a biotinylated donor nucleotide probe (Europium cryptate) that is brought into sufficient proximity to serve as a fluorescence-donor-acceptor pair. Thus, a FRET signal at 665 nm is generated upon excitation at 340 nm.
Proteins used as transcription factors (POLRMT: NP_005026.3, TFAM: NP_003192.1, TFB2M: NP_071761.1) are diluted from their stocks to working concentrations of 1 μM, 20 μM and 4 μM respectively, in a dilution buffer containing 20 mM Tris-HCl (pH 8.0), 200 mM NaCl, 10% (v/v) glycerol, 1 mM Dithiothreitol (DTT), 0.5 mM EDTA.
DNA template is a pUC18 plasmid with the mitochondrial light strand promotor sequence (1-477) cloned between HindIII and BamHI sites. The DNA template is restriction linearized proximal to the promotor 3′-end (pUC-LSP).
The reaction mixture (10 uL) containing 7.5 nM POLRMT, 15 nM of TFB2M, 30 nM of TFAM, 0.5 nM of DNA template and 500 μM nucleotide triphosphate mix (NTPs) in a reaction buffer (containing 10 mM Tris-HCl (pH 7.5), 10 mM MgCl2, 40 mM NaCl, 10 mM DTT, 0.005% (w/v) Tween-20, 160 units/ml Rnase inhibitor and 0.1 mg/mL BSA) are dispensed to compounds in microplates, using a Thermo Multidrop® dispenser, and incubated at 37° C. in a VWR INCU-Line incubator for 60 minutes after mixing. No nucleotide triphosphate mix is added to negative control samples. Microplates with compounds to be tested in the assay are prepared from 10 mM compound stocks in 100% DMSO, equal amounts of DMSO without any compound are added to positive control and negative control samples.
During the incubation, a mix of the detection reagents is prepared in a buffer such that the enzymatic reaction is terminated due to chelating of Mg-ions and increased ionic strength, containing 50 mM Tris-HCl (pH 7.5), 700 mM NaCl, 20 mM EDTA, and 0.010% (w/v) Tween-20. Europium-streptavidin is pre-incubated with a 200-fold molar excess of a random sequence oligonucleotide to block unspecific binding of oligo, for two hours at ambient temperature in the dark. Afterwards, the blocked Europium-streptavidin is kept on ice until use.
At the end of the enzymatic reaction time, 5 μL detection oligo mix in the detection buffer is added, and assay plates are mixed and kept at ambient temperature for one hour, protected from light. The concentration of the Acceptor nucleotide oligo (e.g., ATTO647N-5′-[…]-3′) and Donor nucleotide oligo (e.g., bio-5′-AACACATCTCT(-bio)GCCAAACCCCA-bio-3′) in each assay well is 1 nM, and 3 nM, respectively.
After incubation with oligo mix, 5 μL of pre-blocked Europium-streptavidin reagent is dispensed to each assay well, assay plates are again mixed and kept at ambient temperature for one hour, protected from light.
The generated signal is measured with BMG Pherastar microtiter plate reader with a TRF light unit, using excitation at 340 nm, an integration time of 200 μs, and a delay time of 100 μs, before detection at 620 nm and 665 nm. The ratio of donor- and acceptor-fluorescence is used as a measure of the generated transcript product (i.e. enzymatic activity).
Background: In TR-FRET formats the signal depends on donor and acceptor labels being close together.

[1] abbreviates: isoquinolinone compounds (Table 1).
Where [2] appears, read: quinolinone compounds (Table 2).

Structures are written as SMILES. Bounds are passed on as bounds.

POLRMT, sequence (O00411 42-1230): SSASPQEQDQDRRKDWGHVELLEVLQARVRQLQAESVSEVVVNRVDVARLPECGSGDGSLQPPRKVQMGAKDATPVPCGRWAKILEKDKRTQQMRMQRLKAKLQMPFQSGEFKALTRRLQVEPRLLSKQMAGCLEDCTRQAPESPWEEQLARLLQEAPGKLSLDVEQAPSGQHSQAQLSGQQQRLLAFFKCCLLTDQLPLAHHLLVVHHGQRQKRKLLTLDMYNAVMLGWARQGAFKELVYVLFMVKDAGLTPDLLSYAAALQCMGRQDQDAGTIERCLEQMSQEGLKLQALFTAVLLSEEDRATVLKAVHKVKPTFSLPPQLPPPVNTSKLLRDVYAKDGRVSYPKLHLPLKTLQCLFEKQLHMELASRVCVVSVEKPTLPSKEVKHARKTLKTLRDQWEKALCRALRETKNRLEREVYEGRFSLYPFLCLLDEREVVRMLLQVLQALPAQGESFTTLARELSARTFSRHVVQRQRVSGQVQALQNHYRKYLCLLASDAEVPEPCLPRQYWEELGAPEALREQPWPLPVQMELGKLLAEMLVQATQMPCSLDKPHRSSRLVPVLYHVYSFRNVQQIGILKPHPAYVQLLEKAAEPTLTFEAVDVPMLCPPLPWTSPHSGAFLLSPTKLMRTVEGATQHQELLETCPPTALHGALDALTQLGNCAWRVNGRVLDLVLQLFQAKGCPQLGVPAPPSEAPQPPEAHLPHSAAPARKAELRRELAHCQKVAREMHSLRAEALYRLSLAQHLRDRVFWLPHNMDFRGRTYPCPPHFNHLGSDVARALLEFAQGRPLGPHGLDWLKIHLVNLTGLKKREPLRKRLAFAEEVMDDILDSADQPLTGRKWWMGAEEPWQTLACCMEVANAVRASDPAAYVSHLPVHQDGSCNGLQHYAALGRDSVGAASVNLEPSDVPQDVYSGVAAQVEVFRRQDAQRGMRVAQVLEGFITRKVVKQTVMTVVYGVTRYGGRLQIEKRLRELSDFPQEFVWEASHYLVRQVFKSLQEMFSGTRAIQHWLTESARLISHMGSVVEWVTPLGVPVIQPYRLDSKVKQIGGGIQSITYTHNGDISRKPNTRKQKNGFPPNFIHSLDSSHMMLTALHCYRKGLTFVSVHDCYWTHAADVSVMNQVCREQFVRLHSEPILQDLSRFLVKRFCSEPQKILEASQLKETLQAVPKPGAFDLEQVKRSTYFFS

A word on the IC50: it is the concentration that gives 50% inhibition. Turning to `C[C@@H](Oc1ccc2c(-c3ccc(F)cc3Cl)c[nH]c(=O)c2c1)C(=O)O` [Example 90, (R)-2-((4-(2-chloro-4-fluorophenyl)-1-oxo-1,2-dihydroisoquinolin-7-yl)oxy)propanoic acid], the 50% inhibitory concentration (IC50) under setting [1] came out at 1 µM.
On the same count and under the same terms, to `COCC(Oc1ccc2c(-c3ccccc3C)c[nH]c(=O)c2c1)C(N)=O` (single isomer, unassigned) [Example 53] belongs 13 µM; to `Cc1ccccc1-c1c[nH]c(=O)c2cc(O[C@H](C)C(=O)N3CCC(C(=O)O)CC3)ccc12` [Example 24, (R)-1-(2-((1-oxo-4-(o-tolyl)-1,2-dihydroisoquinolin-7-yl)oxy)propanoyl)piperidine-4-carboxylic acid], 0.05 µM.
Same read-out and setting: to `Cc1cc(F)cc(C)c1-c1c[nH]c(=O)c2cc(OCC(N)=O)ccc12` [Example 109, 2-((4-(4-fluoro-2,6-dimethylphenyl)-1-oxo-1,2-dihydroisoquinolin-7-yl)oxy)acetamide] belongs 7 µM.
Same read-out and setting: to `C[C@@H](Oc1ccc2c(-c3ccc(F)cc3Cl)c[nH]c(=O)c2c1)C(=O)N1CCOC[C@@H]1CO` [Example 114, 4-(2-chloro-4-fluorophenyl)-7-(((R)-1-((S)-3-(hydroxymethyl)morpholino)-1-oxopropan-2-yl)oxy)isoquinolin-1(2H)-one] belongs 0.2 µM.
On to `CC(C)Oc1ccc2c(-c3ccc(F)cc3Cl)c[nH]c(=O)c2c1` [Example 7, 4-(2-chloro-4-fluorophenyl)-7-isopropoxyisoquinolin-1(2H)-one], for which the IC50 under setting [1] came out at 0.8 µM.
Under setting [1], `Cc1ccccc1-c1c[nH]c(=O)c2cc(O[C@H](C)C(=O)N3CCC[C@H](C#N)C3)ccc12` [Example 77, (S)-1-((R)-2-((1-oxo-4-(o-tolyl)-1,2-dihydroisoquinolin-7-yl)oxy)propanoyl)piperidine-3-carbonitrile] returned an IC50 of 0.03 µM.
The same measure, in the same setting: the value for `C[C@@H](Oc1ccc2c(-c3ccc(F)cc3Cl)c[nH]c(=O)c2c1)C(=O)N1CCO[C@@H](CO)C1` [Example 104, 4-(2-chloro-4-fluorophenyl)-7-(((R)-1-((R)-2-(hydroxymethyl)morpholino)-1-oxopropan-2-yl)oxy)isoquinolin-1(2H)-one] was 1 µM.
The compound `C[C@H](Oc1ccc2c(-c3ccc(F)cc3Cl)c[nH]c(=O)c2c1)C(=O)N1CCC(C(=O)O)CC1` [Example 60, (S)-1-(2-((4-(2-chloro-4-fluorophenyl)-1-oxo-1,2-dihydroisoquinolin-7-yl)oxy)propanoyl)piperidine-4-carboxylic acid] returned a 50% inhibitory concentration (IC50) under setting [1] of 39 µM.
`CC(C)Oc1ccc2c(-c3ccccc3C#N)c[nH]c(=O)c2c1` [Example 34, 2-(7-isopropoxy-1-oxo-1,2-dihydroisoquinolin-4-yl)benzonitrile] had an IC50 under setting [1] of 14 µM.
`Cc1ccccc1-c1c[nH]c(=O)c2cc(NCC(N)=O)ccc12` [Example 70, 2-((1-oxo-4-(o-tolyl)-1,2-dihydroisoquinolin-7-yl)amino)acetamide] yielded an IC50 under setting [1] of 8 µM.
For `C[C@@H](Oc1ccc2c(-c3ccc(F)cc3Cl)c[nH]c(=O)c2c1)C(=O)N1CCCC(S(C)(=O)=O)C1` (single isomer, unassigned) [Example 95], the half-inhibitory concentration (IC50) under setting [1] was found to be 1 µM.
Still for that read-out and setting: to `CCC(C)Oc1ccc2c(-c3ccccc3C)c[nH]c(=O)c2c1` (centres unmarked) [Example 5, 7-(sec-butoxy)-4-(o-tolyl)isoquinolin-1(2H)-one] belongs 0.2 µM; to `Cc1ccccc1-c1c[nH]c(=O)c2cc(NC(=O)C3CCN(C)CC3)ccc12` [Example 43, 1-methyl-N-(1-oxo-4-(o-tolyl)-1,2-dihydroisoquinolin-7-yl)piperidine-4-carboxamide], greater than 100 µM.
With `Cc1ccccc1-c1cc(=O)[nH]c2cc(O[C@@H](C)C(=O)N(C)C)ccc12` (single isomer, unassigned) [Example Q8], the IC50 under setting [2] was greater than 100 µM.
Consider `Cc1ccccc1-c1c[nH]c(=O)c2cc(C(=O)N(C)C)ccc12` [Example 23, N,N-dimethyl-1-oxo-4-(o-tolyl)-1,2-dihydroisoquinoline-7-carboxamide], for which, under setting [1], the IC50 was determined as 75 µM.
Still for that read-out and setting: the value for `Cc1ccccc1-c1c[nH]c(=O)c2cc(OC(C)C(N)=O)ccc12` (single isomer, unassigned) [Example 72] was 17 µM; that for `CC(=O)N1CCC(C(=O)Nc2ccc3c(-c4ccccc4C)c[nH]c(=O)c3c2)CC1` [Example 33, 1-acetyl-N-(1-oxo-4-(o-tolyl)-1,2-dihydroisoquinolin-7-yl)piperidine-4-carboxamide] was greater than 100 µM; that for `Cc1ccccc1-c1c[nH]c(=O)c2cc(C(=O)N3CCCC3)ccc12` [Example 19, 7-(pyrrolidine-1-carbonyl)-4-(o-tolyl)isoquinolin-1(2H)-one] was greater than 100 µM.
Turning to `C[C@@H](Oc1ccc2c(-c3ccc(F)cc3Cl)cc(=O)[nH]c2c1)C(=O)N1CCCCC1` [Example Q5, (R)-4-(2-chloro-4-fluorophenyl)-7-((1-oxo-1-(piperidin-1-yl)propan-2-yl)oxy)quinolin-2(1H)-one], 5 µM corresponded to half-maximal inhibition under setting [2] (IC50).
For the compound `COc1ccc2c(-c3ccc(F)cc3Cl)c[nH]c(=O)c2c1` [Example 1, 4-(2-chloro-4-fluorophenyl)-7-methoxyisoquinolin-1(2H)-one], the midpoint of inhibition under setting [1], the IC50, lay at 10 µM.
On the same count and under the same terms, to `COCC(C)Oc1ccc2c(-c3ccccc3C)c[nH]c(=O)c2c1` (single isomer, unassigned) [Example 27, 7-((1-methoxypropan-2-yl)oxy)-4-(o-tolyl)isoquinolin-1(2H)-one] belongs 1 µM; to `C[C@@H](Oc1ccc2c(-c3ccc(F)cc3Cl)c[nH]c(=O)c2c1)C(=O)N1CCN(S(C)(=O)=O)CC1` [Example 130, (R)-4-(2-chloro-4-fluorophenyl)-7-((1-(4-(methylsulfonyl)piperazin-1-yl)-1-oxopropan-2-yl)oxy)isoquinolin-1(2H)-one], 2 µM; to `Cc1ccccc1-c1c[nH]c(=O)c2cc(O[C@H](C)C(=O)N3CCC(F)(F)CC3)ccc12` [Example 80, (R)-7-((1-(4,4-difluoropiperidin-1-yl)-1-oxopropan-2-yl)oxy)-4-(o-tolyl)isoquinolin-1(2H)-one], 0.04 µM.
In the case of `Cc1ccccc1-c1c[nH]c(=O)c2cc(O[C@H](C)C(=O)N3CCCC(S(C)(=O)=O)C3)ccc12` (single isomer, unassigned) [Example 97], under setting [1], the IC50 came to 0.3 µM.
`C[C@@H](Oc1ccc2c(-c3ccc(F)cc3Cl)c[nH]c(=O)c2c1)C(=O)N1CCC(C(=O)O)CC1` [Example 64, (R)-1-(2-((4-(2-chloro-4-fluorophenyl)-1-oxo-1,2-dihydroisoquinolin-7-yl)oxy)propanoyl)piperidine-4-carboxylic acid] registered a concentration for half-maximal inhibition (IC50) under setting [1] of 0.05 µM.
Same read-out and setting: the value for `C[C@@H]1CN(C(=O)[C@@H](C)Oc2ccc3c(-c4ccc(F)cc4Cl)c[nH]c(=O)c3c2)C[C@H](C)O1` [Example 100, 4-(2-chloro-4-fluorophenyl)-7-(((R)-1-((2S,6R)-2,6-dimethylmorpholino)-1-oxopropan-2-yl)oxy)isoquinolin-1(2H)-one] was 0.1 µM.
Still for that read-out and setting: to `Cc1ccccc1-c1c[nH]c(=O)c2cc(OCC(=O)N(C)C)ccc12` [Example 8, N,N-dimethyl-2-((1-oxo-4-(o-tolyl)-1,2-dihydroisoquinolin-7-yl)oxy)acetamide] belongs 35 µM; to `COCC(Oc1ccc2c(-c3ccccc3C)c[nH]c(=O)c2c1)C(=O)N(C)C` (single isomer, unassigned) [Example 54], greater than 100 µM.
